{"source": "patent US20190071670A1", "about": "“Methods Of Treatment For Alpha-1 Antitrypsin Deficiency” (Arrowhead Pharmaceuticals, Inc., priority 2016, published 2019)", "test_system": "AAT", "conditions": "cynomolgus macaque", "method": "MLP delivery polymer and Duplex Pair SEQ ID NO: 5/6 (AAT RNAi agent) were made and combined in a pharmaceutically acceptable buffer. On day 1, cynomolgus macaque (Macaca fascicularis) primates (male and female, 3 to 9 kg) were co-injected with MLP delivery polymer and Duplex Pair SEQ ID NO: 5/6 at different dose combinations. The dose combinations injected were: 2.0 mg/kg MLP delivery polymer+4.0 AAT RNAi agent (n=3), 3 mg/kg MLP delivery polymer+1.5 mg/kg AAT RNAi agent (n=2), 3.0 mg/kg MLP delivery polymer+3.0 mg/kg AAT RNAi agent (n=3), 3.0 mg/kg MLP delivery polymer+6.0 mg/kg AAT RNAi agent (n=2), 6.0 mg/kg MLP delivery polymer+12 mg/kg AAT RNAi trigger (n=3) ([…] conversion factor used to determine RNAi agent concentration) and 12 mg/kg MLP delivery polymer+6.0 mg/kg AAT RNAi agent (n=12). For each injection the MLP delivery polymer+AAT RNAi agent (2 ml/kg) was injected into the saphenous vein using a 22 to 25 gauge intravenous catheter. At the indicated time points, blood samples were drawn and analyzed for AAT and toxicity markers. Blood was collected from the femoral vein and primates were fasted overnight before all blood collections. Blood tests for blood urea nitrogen (BUN), alanine transaminase (ALT), aspartate aminotransferase (AST), and creatinine were performed on an automated chemistry analyzer at Meriter laboratories or BASi. AAT levels were determined on a Cobas Integra 400 (Roche Diagnostics) according to the manufacturer's recommendations.\nCynomolgus macaque primates were given five doses of AAT RNAi trigger+MLP delivery polymer at six week intervals. Each dose contained MLP delivery polymer and Duplex Pair SEQ ID NO: 5/6 (AAT RNAi agent) at a 1:2 weight to weight ratio of the MLP to RNAi agent. The first injection was on day 1. The dose combinations injected were: 2.0 mg/kg MLP delivery polymer+4.0 AAT RNAi agent (n=2) and 3 mg/kg MLP delivery polymer+6 mg/kg AAT RNAi agent (n=2). Blood was collected at intervals throughout the study and AAT levels were measured from the serum as described.", "note": "Read-outs that look alike come from different tables or passages of the source."}
{"substance": "Duplex Pair SEQ ID NO: 5/6: double-stranded AAT RNAi agent: modified antisense strand SEQ ID NO: 5 annealed to Chol-TEG sense strand SEQ ID NO: 6 (antisense TGGAACUUGGUGAUGAUAUTT; sense UAUAUAUCAUCACCAAGUUCCAT; Chol-TEG on sense strand; chemical modifications; antisense strand of dsRNA; modified_base 7 /mod_base = “2′-3′ seco corresponding nucleotide”; modified_base 2,4,6,8,10,12,14,16,18 /mod_base = “2′-deoxy-2′-fluoro corresponding nucleoside”; modified_base 3,5,9,11,13,15,17,19 /mod_base = “2′-O-methyl corresponding nucleoside”; modified_base 21 /mod_base = “5′-phosphorothioate corresponding nucleotide”; sense strand of dsRNA; modified_base 2 /mod_base = “2′-hydroxy corresponding nucleoside”; modified_base 4,6,8,10,12,14,16,18,20,22 /mod_base = “2′-deoxy-2′-fluoro corresponding nucleoside”; …)", "values": [{"measurement": "Serum AAT levels measured six weeks after each treatment", "setting": "2.0 mg/kg MLP delivery polymer + 4.0 AAT RNAi agent, five doses at six week intervals", "value": "rebounded less with each additional treatment"}, {"measurement": "Serum AAT reduced", "setting": "2.0 mg/kg MLP delivery polymer + 4.0 AAT RNAi agent, six week intervals, following the fourth treatment", "value": 85, "unit": "%"}, {"measurement": "Serum AAT reduced", "setting": "2.0 mg/kg MLP delivery polymer + 4.0 AAT RNAi agent, following the first treatment", "value": 80, "unit": "%"}, {"measurement": "knockdown of AAT", "setting": "all dose combinations with MLP delivery polymer", "value": "Significant knockdown"}, {"measurement": "Percent AAT Knockdown in NHPs", "setting": "co-injection MLP 2.0 mg/kg + SEQ ID 5/6 4.0 mg/kg on day 1, Day 2", "value": 11, "unit": "%"}, {"measurement": "Percent AAT Knockdown in NHPs", "setting": "co-injection MLP 2.0 mg/kg + SEQ ID 5/6 4.0 mg/kg on day 1, Day 3", "value": 27, "unit": "%"}, {"measurement": "Percent AAT Knockdown in NHPs", "setting": "co-injection MLP 2.0 mg/kg + SEQ ID 5/6 4.0 mg/kg on day 1, Day 8", "value": 63, "unit": "%"}, {"measurement": "Percent AAT Knockdown in NHPs", "setting": "co-injection MLP 2.0 mg/kg + SEQ ID 5/6 4.0 mg/kg on day 1, Day 11", "value": 73, "unit": "%"}, {"measurement": "Percent AAT Knockdown in NHPs", "setting": "co-injection MLP 2.0 mg/kg + SEQ ID 5/6 4.0 mg/kg on day 1, Day 15", "value": 81, "unit": "%"}, {"measurement": "Percent AAT Knockdown in NHPs", "setting": "co-injection MLP 2.0 mg/kg + SEQ ID 5/6 4.0 mg/kg on day 1, Day 22", "value": 85, "unit": "%"}, {"measurement": "Percent AAT Knockdown in NHPs", "setting": "co-injection MLP 2.0 mg/kg + SEQ ID 5/6 4.0 mg/kg on day 1, Day 29", "value": 80, "unit": "%"}, {"measurement": "Percent AAT Knockdown in NHPs", "setting": "co-injection MLP 2.0 mg/kg + SEQ ID 5/6 4.0 mg/kg on day 1, Pretest", "value": 0, "unit": "%"}, {"measurement": "Percent AAT Knockdown in NHPs", "setting": "co-injection MLP 3.0 mg/kg + SEQ ID 5/6 1.5 mg/kg on day 1, Day 2", "value": 16, "unit": "%"}, {"measurement": "Percent AAT Knockdown in NHPs", "setting": "co-injection MLP 3.0 mg/kg + SEQ ID 5/6 1.5 mg/kg on day 1, Day 3", "value": 30, "unit": "%"}, {"measurement": "Percent AAT Knockdown in NHPs", "setting": "co-injection MLP 3.0 mg/kg + SEQ ID 5/6 1.5 mg/kg on day 1, Day 8", "value": 59, "unit": "%"}, {"measurement": "Percent AAT Knockdown in NHPs", "setting": "co-injection MLP 3.0 mg/kg + SEQ ID 5/6 1.5 mg/kg on day 1, Day 11", "value": 70, "unit": "%"}, {"measurement": "Percent AAT Knockdown in NHPs", "setting": "co-injection MLP 3.0 mg/kg + SEQ ID 5/6 1.5 mg/kg on day 1, Day 15", "value": 74, "unit": "%"}, {"measurement": "Percent AAT Knockdown in NHPs", "setting": "co-injection MLP 3.0 mg/kg + SEQ ID 5/6 1.5 mg/kg on day 1, Day 22", "value": 76, "unit": "%"}, {"measurement": "Percent AAT Knockdown in NHPs", "setting": "co-injection MLP 3.0 mg/kg + SEQ ID 5/6 1.5 mg/kg on day 1, Day 29", "value": 74, "unit": "%"}, {"measurement": "Percent AAT Knockdown in NHPs", "setting": "co-injection MLP 3.0 mg/kg + SEQ ID 5/6 1.5 mg/kg on day 1, Day 36", "value": 70, "unit": "%"}, {"measurement": "Percent AAT Knockdown in NHPs", "setting": "co-injection MLP 3.0 mg/kg + SEQ ID 5/6 1.5 mg/kg on day 1, Day 43", "value": 63, "unit": "%"}, {"measurement": "Percent AAT Knockdown in NHPs", "setting": "co-injection MLP 3.0 mg/kg + SEQ ID 5/6 1.5 mg/kg on day 1, Day 50", "value": 51, "unit": "%"}, {"measurement": "Percent AAT Knockdown in NHPs", "setting": "co-injection MLP 3.0 mg/kg + SEQ ID 5/6 1.5 mg/kg on day 1, Pretest", "value": 0, "unit": "%"}, {"measurement": "Percent AAT Knockdown in NHPs", "setting": "co-injection MLP 3.0 mg/kg + SEQ ID 5/6 3.0 mg/kg on day 1, Day 2", "value": 15, "unit": "%"}, {"measurement": "Percent AAT Knockdown in NHPs", "setting": "co-injection MLP 3.0 mg/kg + SEQ ID 5/6 3.0 mg/kg on day 1, Day 3", "value": 29, "unit": "%"}, {"measurement": "Percent AAT Knockdown in NHPs", "setting": "co-injection MLP 3.0 mg/kg + SEQ ID 5/6 3.0 mg/kg on day 1, Day 8", "value": 63, "unit": "%"}, {"measurement": "Percent AAT Knockdown in NHPs", "setting": "co-injection MLP 3.0 mg/kg + SEQ ID 5/6 3.0 mg/kg on day 1, Day 11", "value": 74, "unit": "%"}, {"measurement": "Percent AAT Knockdown in NHPs", "setting": "co-injection MLP 3.0 mg/kg + SEQ ID 5/6 3.0 mg/kg on day 1, Day 15", "value": 82, "unit": "%"}, {"measurement": "Percent AAT Knockdown in NHPs", "setting": "co-injection MLP 3.0 mg/kg + SEQ ID 5/6 3.0 mg/kg on day 1, Day 22", "value": 88, "unit": "%"}, {"measurement": "Percent AAT Knockdown in NHPs", "setting": "co-injection MLP 3.0 mg/kg + SEQ ID 5/6 3.0 mg/kg on day 1, Day 29", "value": 85, "unit": "%"}, {"measurement": "Percent AAT Knockdown in NHPs", "setting": "co-injection MLP 3.0 mg/kg + SEQ ID 5/6 3.0 mg/kg on day 1, Pretest", "value": 0, "unit": "%"}, {"measurement": "Percent AAT Knockdown in NHPs", "setting": "co-injection MLP 3.0 mg/kg + SEQ ID 5/6 6.0 mg/kg on day 1, Day 2", "value": 10, "unit": "%"}, {"measurement": "Percent AAT Knockdown in NHPs", "setting": "co-injection MLP 3.0 mg/kg + SEQ ID 5/6 6.0 mg/kg on day 1, Day 3", "value": 25, "unit": "%"}, {"measurement": "Percent AAT Knockdown in NHPs", "setting": "co-injection MLP 3.0 mg/kg + SEQ ID 5/6 6.0 mg/kg on day 1, Day 8", "value": 63, "unit": "%"}, {"measurement": "Percent AAT Knockdown in NHPs", "setting": "co-injection MLP 3.0 mg/kg + SEQ ID 5/6 6.0 mg/kg on day 1, Day 11", "value": 74, "unit": "%"}, {"measurement": "Percent AAT Knockdown in NHPs", "setting": "co-injection MLP 3.0 mg/kg + SEQ ID 5/6 6.0 mg/kg on day 1, Day 15", "value": 82, "unit": "%"}, {"measurement": "Percent AAT Knockdown in NHPs", "setting": "co-injection MLP 3.0 mg/kg + SEQ ID 5/6 6.0 mg/kg on day 1, Pretest", "value": 0, "unit": "%"}, {"measurement": "Percent AAT Knockdown in NHPs", "setting": "co-injection MLP 6.0 mg/kg + SEQ ID 5/6 12.0 mg/kg on day 1, Day 2", "value": 18, "unit": "%"}, {"measurement": "Percent AAT Knockdown in NHPs", "setting": "co-injection MLP 6.0 mg/kg + SEQ ID 5/6 12.0 mg/kg on day 1, Day 3", "value": 30, "unit": "%"}, {"measurement": "Percent AAT Knockdown in NHPs", "setting": "co-injection MLP 6.0 mg/kg + SEQ ID 5/6 12.0 mg/kg on day 1, Day 8", "value": 61, "unit": "%"}, {"measurement": "Percent AAT Knockdown in NHPs", "setting": "co-injection MLP 6.0 mg/kg + SEQ ID 5/6 12.0 mg/kg on day 1, Pretest", "value": 0, "unit": "%"}, {"measurement": "Percent AAT Knockdown in NHPs", "setting": "co-injection MLP 12.0 mg/kg + SEQ ID 5/6 6.0 mg/kg on day 1, Day 2", "value": 3, "unit": "%"}, {"measurement": "Percent AAT Knockdown in NHPs", "setting": "co-injection MLP 12.0 mg/kg + SEQ ID 5/6 6.0 mg/kg on day 1, Day 3", "value": 19, "unit": "%"}, {"measurement": "Percent AAT Knockdown in NHPs", "setting": "co-injection MLP 12.0 mg/kg + SEQ ID 5/6 6.0 mg/kg on day 1, Day 8", "value": 60, "unit": "%"}, {"measurement": "Percent AAT Knockdown in NHPs", "setting": "co-injection MLP 12.0 mg/kg + SEQ ID 5/6 6.0 mg/kg on day 1, Day 11", "value": 84, "unit": "%"}, {"measurement": "Percent AAT Knockdown in NHPs", "setting": "co-injection MLP 12.0 mg/kg + SEQ ID 5/6 6.0 mg/kg on day 1, Day 15", "value": 88, "unit": "%"}, {"measurement": "Percent AAT Knockdown in NHPs", "setting": "co-injection MLP 12.0 mg/kg + SEQ ID 5/6 6.0 mg/kg on day 1, Day 26", "value": 91, "unit": "%"}, {"measurement": "Percent AAT Knockdown in NHPs", "setting": "co-injection MLP 12.0 mg/kg + SEQ ID 5/6 6.0 mg/kg on day 1, Day 33", "value": 86, "unit": "%"}, {"measurement": "Percent AAT Knockdown in NHPs", "setting": "co-injection MLP 12.0 mg/kg + SEQ ID 5/6 6.0 mg/kg on day 1, Day 47", "value": 76, "unit": "%"}, {"measurement": "Percent AAT Knockdown in NHPs", "setting": "co-injection MLP 12.0 mg/kg + SEQ ID 5/6 6.0 mg/kg on day 1, Pretest", "value": 0, "unit": "%"}, {"measurement": "serum AAT levels reduced", "setting": "repeat dosing at six week intervals, 3 mg/kg MLP delivery polymer + 6 mg/kg, from two to thirty weeks after the first treatment", "value": "80-90%"}]}
